These results are taken from paper PMC12213745, “Compounds from Cyclocarya paliurus leaves inhibit binary division of methicillin-resistant Staphylococcus aureus by disrupting FtsZ dynamic” (Frontiers in Microbiology, 2025).

For the test, the system named is MRSA-4. Put plainly: MRSA skin infection model. The format is in vivo, BALB/c mice. As for the experimental part:
All animal experiments were conducted in accordance with the NIH Guide for the Care and Use of Laboratory Animals and the institutional guidelines of West China Hospital, Sichuan University. The study was approved by the Institutional Animal Care and Use Committee (HX20220224085). Female BALB/c mice (6–8 weeks old) were obtained from Chengdu DOSSY Experimental Animal Co., Ltd. (Chengdu, China) and randomly assigned to five groups (n = 6 per group). On day 0, mice were subcutaneously inoculated with 2 × 10^8 CFUs of MRSA-4 suspended in 50 μL of sterile PBS. Treatment commenced 24 h post-infection. Mice received once daily subcutaneous injections at the site of infection for four consecutive days with either AA (0.2, 0.4, or 0.8 mg/kg), vancomycin (0.8 mg/kg, positive control), or PBS (negative control). Lesion progression was monitored daily by photographing the infected area, and wound sizes were quantified using ImageJ software (Version 1.42q, NIH, USA). On day 5 post-infection, mice were anesthetized and euthanized. The whole lesioned skin tissues were aseptically excised, homogenized in 1 mL of sterile PBS, and serially diluted. Aliquots were plated on LB agar and incubated at 37°C overnight to determine bacterial burdens.
Building on its rapid bactericidal activity in vitro and unique FtsZ-binding profile, we next evaluated the in vivo therapeutic efficacy of AA using a murine skin infection model. The model was established in BALB/c mice by subcutaneous inoculation with 2 × 10^8 CFU of MRSA-4 (Figure 7A). Treatment began 24 h post-infection and consisted of daily subcutaneous injections at the infection site for four consecutive days with AA (0.2, 0.4, or 0.8 mg/kg), vancomycin (at 0.8 mg/kg; positive control), or PBS (negative control). Therapeutic outcomes were assessed on day 5 post-infection by quantifying bacterial burden, visually monitoring wound healing, and measuring abscess size.

Setting [1] is: 0.8 mg/kg s.c. once daily for 4 days, day 5, vs PBS.

Take `C[C@H]1[C@H](C)CC[C@]2(C(=O)O)CC[C@]3(C)C(=CC[C@@H]4[C@@]5(C)C[C@@H](O)[C@H](O)[C@@](C)(CO)[C@@H]5CC[C@]43C)[C@H]12` [AA, asiatic acid]: the “wound healing (visual inspection)” value reads like this: (0.8 mg/kg s.c. once daily for 4 days) “substantial amelioration of symptoms”; (low-dose (0.2 and 0.4 mg/kg) s.c. once daily for 4 days) “moderate, dose-dependent improvements in wound appearance”. Further, the abscess size entry under setting [1] was “significantly reduced abscess dimensions”. The “bacterial load in infected skin tissues” value is, setting by setting: under setting [1], “significantly reduced bacterial counts”; (0.2 and 0.4 mg/kg s.c. once daily for 4 days, day 5, vs PBS) “modest but dose-responsive decreases in bacterial load”.
